Columns and labels:
[1] = system: Mice, strain ICR; test: Open field (OF) test, 15 minute session of spontaneous activity
Description: Open Field (OF) tests were performed as follows—Fifteen minutes after test item/vehicle administration, mice were placed at the center of an open field box (43×43×40 cm) between 9 AM and 5 PM. On each side of the open field box, two frames placed at 2 and 5 cm height with 16 photocell beams per side ensure movement detection. The computer defined grid lines that divided the open field into two compartments: margin and center. Several variables were recorded during a 15 minute session of spontaneous activity including: time spent moving, traveled distance, time spent and number of visits to the central compartment.

[2] = system: Mice, strain ICR; test: Tail pinch test (modified Haffner's method); conditions: first test 15 min after dosing

COc1ccc2c3c1O[C@H]1C(=O)CC[C@@]4(O)[C@@H](C2)N(C)CC[C@]314 [oxycodone]
Total distance traveled compared to vehicle control group (1M) ([1]; oxycodone 10 mg/kg IP (PEA 25 mg/kg where combined), dosed 15 min before test, 6M P<0.001, 8M P<0.05, FIG. 1, associated with irritation level): significantly higher | Average animal velocity compared to vehicle control group (1M) ([1]; oxycodone 10 mg/kg IP (PEA 25 mg/kg where combined), total distance (cm) / total moving time (sec), 6M P<0.001, 8M P<0.05, FIG. 2, associated with uncontrolled movement and confusion): significantly higher | Total distance traveled, effect of oxycodone (dose-dependent) ([1]; oxycodone 5 and 10 mg/kg IP compared to vehicle 1M, FIG. 1): significantly increased | Average animal velocity, effect of oxycodone (dose-dependent) ([1]; oxycodone 5 and 10 mg/kg IP compared to vehicle 1M, FIG. 2): significantly increased | Time after administration at which the analgesic effect began ([2]; high dose oxycodone 10 mg/kg IP (PEA 25 mg/kg where combined), FIG. 3A): 15 min | Time after administration at which the analgesic effect began ([2]; low dose oxycodone 5 mg/kg IP (PEA 25 mg/kg where combined), FIG. 3B): 15 min

— US20210177779A1, “COMBINATIONS OF OPIOIDS AND N-ACYLETHANOLAMINES” (SciSparc Ltd., priority 2015, published 2021)
